Patent EP2054420B1, “BENZIMIDAZO[1,2-C][1,2,3]THIADIAZOL-7-SULFONAMIDES AS INHIBITORS OF CARBONIC ANHYDRASE AND THE INTERMEDIATES FOR PRODUCTION THEREOF” (Biotechnologijos Institutas, priority 2006, dated 2008)

Target: bovine carbonic anhydrase II (Bos taurus, UniProt P00921)
Assay: fluorescent thermal shift assay (ANS probe)
Format: binding
Conditions: upon increasing concentration of the inhibitor; Figure 3
Method: Example 19. Determination of the observed binding constants by the fluorescent thermal shift assay.
Inhibitor binding to carbonic anhytdrases was also measured by the fluorescent thermal shift assay, which employs 1-anilino-8-naphthalene sulfonate (ANS) probe that visualizes enzyme thermal stabilization by the inhibitor thus determining the binding constant.
Resultant data is consistent with the isothermal titration calorimetry data in determining the observed binding constants of the inhibitors.

Chain of bovine carbonic anhydrase II (P00921 whole entry): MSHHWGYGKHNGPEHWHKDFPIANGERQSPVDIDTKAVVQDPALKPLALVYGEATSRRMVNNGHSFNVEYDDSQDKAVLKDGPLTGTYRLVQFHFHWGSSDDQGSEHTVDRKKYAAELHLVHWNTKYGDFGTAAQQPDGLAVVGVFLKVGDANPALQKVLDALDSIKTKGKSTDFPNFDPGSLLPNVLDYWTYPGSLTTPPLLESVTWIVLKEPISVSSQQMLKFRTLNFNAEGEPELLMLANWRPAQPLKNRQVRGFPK

melting temperature (Tm): Tm increase
Structure (SMILES): NS(=O)(=O)c1ccc2nc3n(c2c1)N=S=C3N1CCOCC1 [compound 4, 3-morpholinbenzimidazo[1,2-c][1,2,3]thiadiazol-7-sulfonamide]
